Test results reported in DBAASP.
Converted amounts (≈) assume the structure as drawn. “And” between values parts separate entries of the source, which are not always exact repeats. Equal values may be shown once. Each block holds one compound with its values, some of them ahead of it.

What was measured:
Experiment in all cases: ≥ marks a high value that may be exact or a test limit, other limits are often not marked, values filed in µg/mL are converted to µM
[1] = tested on: Salmonella typhimurium KCTC 1926
[2] = tested on: Pseudomonas aeruginosa KCTC 2004
[3] = tested on: Staphylococcus aureus CCARM 3126
[4] = tested on: Staphylococcus aureus CCARM 3089
[5] = tested on: Staphylococcus aureus CCARM 3114
[6] = tested on: Staphylococcus aureus CCARM 3090
[7] = tested on: Acinetobacter baumannii CCARM 12036
[8] = tested on: Acinetobacter baumannii CCARM 12005
[9] = tested on: Acinetobacter baumannii CCARM 12037
[10] = tested on: Bacillus subtilis KCTC 1021
[11] = tested on: Pseudomonas aeruginosa CCARM 2003
[12] = tested on: Bacillus subtilis KCTC 3068
[13] = tested on: Staphylococcus aureus KCTC 3881
[14] = tested on: Escherichia coli CCARM 1229
[15] = tested on: Pseudomonas aeruginosa CCARM 2002
[16] = tested on: Pseudomonas aeruginosa KCTC 1637
[17] = tested on: Staphylococcus aureus KCTC 1916
[18] = tested on: Escherichia coli KCTC 2571
[19] = tested on: Salmonella typhimurium CCARM 8007
[20] = tested on: Pseudomonas aeruginosa KCTC 2513
[21] = tested on: Staphylococcus aureus KCTC 1621
[22] = tested on: Escherichia coli KCTC 1682
[23] = tested on: Salmonella typhimurium CCARM 8003
[24] = tested on: Escherichia coli KCTC 2593
[25] = tested on: Pseudomonas aeruginosa CCARM 2163
[26] = tested on: Bacillus subtilis KCTC 1022
[27] = tested on: Escherichia coli CCARM 1238
[28] = tested on: Acinetobacter baumannii CCARM 12035
[29] = tested on: Pseudomonas aeruginosa CCARM 2095
[30] = tested on: Salmonella typhimurium CCARM 8009
[31] = tested on: Staphylococcus aureus CCARM 3108
[32] = tested on: Staphylococcus epidermidis KCTC 1917
[33] = tested on: Klebsiella aerogenes ATCC 13048
Escherichia coli DL7 = tested on: Escherichia coli DL7
[34] = tested on: Staphylococcus epidermidis ATCC 12228
Bacillus subtilis PS832 = tested on: Bacillus subtilis PS832
[35] = tested on: Escherichia coli ATCC 25922
[36] = tested on: Staphylococcus aureus ATCC 29213
[37] = tested on: Klebsiella pneumoniae ATCC 700603
[38] = tested on: Staphylococcus aureus ATCC 700699
[39] = tested on: Staphylococcus aureus ATCC 33591
[40] = tested on: Pseudomonas aeruginosa ATCC 27853
[41] = tested on: Saccharomyces cerevisiae ATCC 44774
Staphylococcus aureus = tested on: Staphylococcus aureus
[42] = tested on: Enterococcus casseliflavus
Enterococcus faecium = tested on: Enterococcus faecium
[43] = tested on: Bacillus subtilis KCTC 3038
[44] = tested on: Salmonella typhimurium KCTC 2370
Enterococcus gallinarum = tested on: Enterococcus gallinarum
[45] = tested on: Enterococcus faecalis ATCC 29212

MIC [1]: 8 µM (≈ 20.4 µg/mL) | MIC [2]: 8 µM (≈ 20.4 µg/mL) | MIC [3]: 16 µM (≈ 40.8 µg/mL) | MIC [4]: 16 µM (≈ 40.8 µg/mL) | MIC [5]: 16 µM (≈ 40.8 µg/mL) | MIC [6]: 16 µM (≈ 40.8 µg/mL) | MIC [7]: 4 µM (≈ 10.2 µg/mL) | MIC [8]: 4 µM (≈ 10.2 µg/mL) | MIC [9]: 4 µM (≈ 10.2 µg/mL) | MIC [10]: 4 µM (≈ 10.2 µg/mL) | MIC [11]: 4 µM (≈ 10.2 µg/mL) | MIC [12]: 4 µM (≈ 10.2 µg/mL) | MIC [13]: 4 µM (≈ 10.2 µg/mL) | MIC [14]: 16 µM (≈ 40.8 µg/mL) | MIC [15]: 4 µM (≈ 10.2 µg/mL) | MIC [16]: 8 µM (≈ 20.4 µg/mL) | MIC [17]: 4 µM (≈ 10.2 µg/mL) | MIC [18]: 4 µM (≈ 10.2 µg/mL) | MIC [19]: 16 µM (≈ 40.8 µg/mL) | MIC [20]: 8 µM (≈ 20.4 µg/mL) | MIC [21]: 4 µM (≈ 10.2 µg/mL) | MIC [22]: 4 µM (≈ 10.2 µg/mL) | MIC [23]: 16 µM (≈ 40.8 µg/mL) | MIC [24]: 2 µM (≈ 5.11 µg/mL) | MIC [25]: 4 µM (≈ 10.2 µg/mL) | MIC [26]: 1 µM (≈ 2.55 µg/mL) | MIC [27]: 16 µM (≈ 40.8 µg/mL) | MIC [28]: 4 µM (≈ 10.2 µg/mL) | MIC [29]: 4 µM (≈ 10.2 µg/mL) | MIC [30]: 16 µM (≈ 40.8 µg/mL) | MIC [31]: 16 µM (≈ 40.8 µg/mL) | MIC [32]: 2 µM (≈ 5.11 µg/mL)
SMILES: CC[C@H](C)[C@H](NC(=O)CNC(=O)[C@H](CCCN=C(N)N)NC(=O)[C@H](CCCCN)NC(=O)[C@@H](NC(=O)[C@H](Cc1cnc[nH]1)NC(=O)[C@H](Cc1cnc[nH]1)NC(=O)[C@H](Cc1ccccc1)NC(=O)[C@@H](N)Cc1ccccc1)[C@@H](C)CC)C(=O)N[C@H](C(=O)N[C@@H](Cc1cnc[nH]1)C(=O)N[C@H](C(=O)NCC(=O)N[C@@H](CCCCN)C(=O)N[C@H](C(=O)N[C@H](C(=O)N[C@@H](Cc1cnc[nH]1)C(=O)N[C@@H](CCCN=C(N)N)C(=O)N[C@@H](CC(C)C)C(=O)N[C@H](C(=O)N[C@H](C(=O)NCC(=O)O)[C@@H](C)O)C(C)C)[C@@H](C)CC)[C@@H](C)O)C(C)C)C(C)C [FFHHIKRGIVHVGKTIHRLVTG]

MIC [33]: ≥ 32 µM | MIC (Escherichia coli DL7): 0.125 µM and 0.06 µM | MIC [34]: 1 µM (≈ 1.77 µg/mL) | MIC (Bacillus subtilis PS832): 0.125 µM and 0.06 µM
SMILES: CC(C)C[C@H](NC(=O)[C@H](CCCCN)NC(=O)[C@H](C)NC(=O)[C@H](CC(C)C)NC(=O)[C@H](CCCCN)NC(=O)[C@H](CCCCN)NC(=O)[C@H](C)NC(=O)[C@H](CC(C)C)NC(=O)[C@H](CCCCN)NC(=O)[C@H](C)NC(=O)[C@H](CC(C)C)NC(=O)[C@H](CCCCN)NC(=O)[C@H](Cc1cnc[nH]1)NC(=O)CNC(=O)CN)C(=O)N[C@@H](C)C(=O)N[C@@H](CCCCN)C(N)=O [GGHKLAKLAKKLAKLAK]

MIC [35]: 100 µM (≈ 249 µg/mL) | MIC [36]: > 100 µM | MIC [37]: > 100 µM | MIC [38]: ≥ 100 µM | MIC [39]: ≥ 100 µM | MIC [40]: > 100 µM
SMILES: CC[C@H](C)[C@H](NC(=O)[C@H](CC(=O)O)NC(=O)[C@H](CCCCN)NC(=O)[C@H](C)NC(=O)[C@H](C)NC(=O)CNC(=O)[C@H](CCCCN)NC(=O)[C@H](CC(C)C)NC(=O)[C@@H](NC(=O)[C@H](CC(=O)O)NC(=O)[C@@H](NC(=O)[C@@H](NC(=O)CN)C(C)C)C(C)C)[C@@H](C)CC)C(=O)N[C@@H](C)C(=O)NCC(=O)N[C@@H](Cc1cnc[nH]1)C(=O)N[C@@H](CC(C)C)C(=O)N[C@@H](C)C(=O)N[C@@H](CO)C(=O)N[C@@H](CCCCN)C(=O)N[C@H](C(=O)N[C@@H](CCSC)C(=O)N[C@@H](CC(N)=O)C(=O)N[C@@H](C)C(=O)N[C@@H](CC(C)C)C(N)=O)C(C)C [GVVDILKGAAKDIAGHLASKVMNAL]

MIC [41]: 2.12 µM (≈ 4 µg/mL) | MIC (Staphylococcus aureus): 1.5 µM (≈ 2.83 µg/mL) | MIC [42]: 1.06 µM (≈ 2 µg/mL) | MIC (Enterococcus faecium): 1.06 µM (≈ 2 µg/mL) | MIC [43]: 1.06 µM (≈ 2 µg/mL) | MIC [44]: 2.12 µM (≈ 4 µg/mL) | MIC (Enterococcus gallinarum): 1.06 µM (≈ 2 µg/mL) | MIC [45]: 1.06 µM (≈ 2 µg/mL)
SMILES: CC[C@H](C)[C@H](NC(=O)[C@H](CCCCN)NC(=O)[C@H](CCC(N)=O)NC(=O)[C@H](CCCCN)NC(=O)[C@@H](NC(=O)[C@@H](NC(=O)[C@H](CCC(N)=O)NC(=O)[C@@H](NC(=O)[C@@H](NC(=O)[C@@H]1CCCN1C(=O)[C@H](CCCN=C(N)N)NC(=O)[C@@H](NC(=O)[C@@H](NC(=O)[C@@H](N)CCCN=C(N)N)[C@@H](C)CC)[C@@H](C)CC)[C@@H](C)CC)[C@@H](C)CC)[C@@H](C)CC)[C@@H](C)CC)C(=O)N[C@@H](CCCN=C(N)N)C(=O)O [RIIRPIIQIIKQKIR]
